From the OligoGym collection
After the bases stand the sugars from the 5' end (letter, count) and the backbone: PS all phosphorothioate, else s phosphorothioate and o phosphodiester by linkage. Methylation of C is not given here. e = 2'-O-(2-methoxyethyl) (MOE); l = locked nucleic acid (LNA); k = constrained ethyl (cEt); d = 2'-deoxy (DNA)

Tests used:
SNHG14 = details: ASO
SOD1 = details: ASO

In the case of “CAGCATTCAACCCTAAT (sugars l3 d12 l2, PS)”, the target mRNA inhibition (SNHG14; Human Neuronal Cell, 0.2 µM) is reported as 40% and the target mRNA inhibition (SNHG14; Human Neuronal Cell, 1 µM) is reported as 54%.

In the case of “TCTCAAAGATCATTCTC (sugars l3 d11 l3, PS)”, the target mRNA inhibition (SNHG14; Human Neuronal Cell, 0.2 µM) is reported as 57% and the target mRNA inhibition (SNHG14; Human Neuronal Cell, 1 µM) is reported as 63%.

“CTCATCCCTCCAAGAAA (sugars l2 d13 l2, PS)” gave a target mRNA inhibition (SNHG14; Human Neuronal Cell, 0.2 µM) of 5%, a target mRNA inhibition (SNHG14; Human Neuronal Cell, 1 µM) of -16% and a target mRNA inhibition (SNHG14; Human Neuronal Cell, 5 µM) of -5%. It also gave a target mRNA inhibition (SNHG14; Mouse Primary Neuronal Cell, 0.005 µM) of 88.8%.

For “TTCTACAGCTAGCAGGA (sugars e2 k2 d9 k2 e2, PS)”, the target mRNA inhibition (SOD1; HepG2, 0.1875 µM) was 10%, the target mRNA inhibition (SOD1; HepG2, 0.75 µM) was 57% and the target mRNA inhibition (SOD1; HepG2, 3 µM) was 84%. The target mRNA inhibition (SOD1; HepG2, 4 µM) was 79% and the target mRNA inhibition (SOD1; HepG2, 12 µM) was 94%.

In the case of “TAAAGTGAGGACCTGCA (sugars e3 k2 d7 k2 e3, PS)”, the target mRNA inhibition (SOD1; HepG2, 3 µM) is reported as 19%.

With “TAATGCTTCCCCACACC (sugars e3 k2 d7 k2 e3, PS)” the target mRNA inhibition (SOD1; HepG2, 3 µM) was 52%.

“CTCCGCGCCTCGCCCACTCT (sugars e5 d10 e5, PS)” was tested, and the target mRNA inhibition (SOD1; HepG2, 4 µM) was 40%.

In the case of “GTCGCCCTTCAGCACGCA (sugars e5 d8 e5, linkages s1 o3 s9 o2 s2)”, the target mRNA inhibition (SOD1; A431, 0.062 µM) is reported as 10%, the target mRNA inhibition (SOD1; A431, 0.185 µM) is reported as 11% and the target mRNA inhibition (SOD1; A431, 0.556 µM) is reported as 11%. It also gave a target mRNA inhibition (SOD1; A431, 1.667 µM) of 3%, a target mRNA inhibition (SOD1; A431, 5 µM) of 18% and a target mRNA inhibition (SOD1; A431, 15 µM) of 4%. The target mRNA inhibition (SOD1; SH-SY5Y, 0.062 µM) was 13%, the target mRNA inhibition (SOD1; SH-SY5Y, 0.185 µM) was 4% and the target mRNA inhibition (SOD1; SH-SY5Y, 0.556 µM) was 5%. For the same sequence, the target mRNA inhibition (SOD1; SH-SY5Y, 1.667 µM) was 40%, the target mRNA inhibition (SOD1; SH-SY5Y, 5 µM) was 52% and the target mRNA inhibition (SOD1; SH-SY5Y, 15 µM) was 77%.

Sequence “ATGTTTATTGGGCGATC (sugars e2 k2 d9 k2 e2, PS)” has a target mRNA inhibition (SOD1; HepG2, 4 µM) of 64%.

In the case of “ATCTTCCAAGTGATCAT (sugars e2 k2 d8 k2 e3, PS)”, the target mRNA inhibition (SOD1; HepG2, 5 µM) is reported as 38%.

Work on “GACCTGCACTGGTACAG (sugars e3 k2 d7 k2 e3, PS)” yielded a target mRNA inhibition (SOD1; HepG2, 3 µM) of 7%.

With “ACAGTGTTTAATGTTT (sugars kekeddddddddekek, linkages s1 o3 s8 o1 s2)” the target mRNA inhibition (SOD1; A431, 0.12 µM) was 0%, the target mRNA inhibition (SOD1; A431, 0.6 µM) was 0% and the target mRNA inhibition (SOD1; A431, 3 µM) was 0%. It also gave a target mRNA inhibition (SOD1; A431, 15 µM) of 6%, a target mRNA inhibition (SOD1; HepG2, 0.222 µM) of 55% and a target mRNA inhibition (SOD1; HepG2, 0.667 µM) of 68%. For the same sequence, the target mRNA inhibition (SOD1; HepG2, 2 µM) was 78% and the target mRNA inhibition (SOD1; HepG2, 6 µM) was 88%.

“ACAGTGTTTAATGTTTA (sugars e2 k2 d8 k2 e3, linkages s1 o2 s9 o2 s2)” showed a target mRNA inhibition (SOD1; A431, 0.12 µM) of 17%, a target mRNA inhibition (SOD1; A431, 0.6 µM) of 8% and a target mRNA inhibition (SOD1; A431, 3 µM) of 26%. The target mRNA inhibition (SOD1; A431, 15 µM) was 37%, the target mRNA inhibition (SOD1; HepG2, 0.222 µM) was 61% and the target mRNA inhibition (SOD1; HepG2, 0.667 µM) was 73%. For the same sequence, the target mRNA inhibition (SOD1; HepG2, 2 µM) was 91% and the target mRNA inhibition (SOD1; HepG2, 6 µM) was 88%.

“ACAGGGTTTTTATTCAC (sugars e2 k2 d9 k2 e2, PS)” showed a target mRNA inhibition (SOD1; HepG2, 5 µM) of 47%.

Sequence “AATCAGTTTCTCACTAC (sugars e2 k2 d8 k2 e3, PS)” has a target mRNA inhibition (SOD1; HepG2, 5 µM) of 34%.

With “GCCTCGCCCACTCTGGCCCC (sugars e5 d10 e5, PS)” the target mRNA inhibition (SOD1; HepG2, 4 µM) was 37%.

With “TTAATGTTTATCAGGAT (sugars e4 d8 k2 e3, linkages s1 o2 s9 o2 s2)” the target mRNA inhibition (SOD1; A431, 0.062 µM) was 26%, the target mRNA inhibition (SOD1; A431, 0.185 µM) was 30% and the target mRNA inhibition (SOD1; A431, 0.556 µM) was 58%. It also gave a target mRNA inhibition (SOD1; A431, 0.6 µM) of 50%, a target mRNA inhibition (SOD1; A431, 1.667 µM) of 64% and a target mRNA inhibition (SOD1; A431, 5 µM) of 68%. For the same sequence, the target mRNA inhibition (SOD1; A431, 15 µM) was 78%, the target mRNA inhibition (SOD1; SH-SY5Y, 0.062 µM) was 11% and the target mRNA inhibition (SOD1; SH-SY5Y, 0.185 µM) was 44%. The target mRNA inhibition (SOD1; SH-SY5Y, 0.556 µM) was 53%, the target mRNA inhibition (SOD1; SH-SY5Y, 1.667 µM) was 75% and the target mRNA inhibition (SOD1; SH-SY5Y, 5 µM) was 77%. It also gave a target mRNA inhibition (SOD1; SH-SY5Y, 15 µM) of 93%.

“TACACCACAAGCCAAAC (sugars e2 k2 d9 k2 e2, PS)” showed a target mRNA inhibition (SOD1; HepG2, 4 µM) of 63%.

“GGTTTTTATTCACAGGC (sugars e2 k2 d9 k2 e2, PS)” was tested, and the target mRNA inhibition (SOD1; HepG2, 4 µM) was 45%, the target mRNA inhibition (SOD1; HepG2, 5 µM) was 57% and the target mRNA inhibition (SOD1; HepG2, 12 µM) was 51%.

“AGTTTAATACCCATCTG (sugars e2 k2 d8 k2 e3, PS)” showed a target mRNA inhibition (SOD1; HepG2, 5 µM) of 29%.

With “CCTCATAATAAGTGCCATAC (sugars e5 d10 e5, PS)” the target mRNA inhibition (SOD1; HepG2, 5 µM) was 23%.

Sequence “GTCTCCGCGACTACTTTATA (sugars e5 d10 e5, PS)” has a target mRNA inhibition (SOD1; HepG2, 4 µM) of 22%.
